Experimental data taken from PubChem BioAssay (NCI).
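Briefly, cells in 96-well plates were exposed to five compound concentrations for 48 h, and endpoints were estimated by linear interpolation. GI50: concentration for 50% inhibition of growth. TGI is the concentration that stops growth completely.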

Columns and labels:
Experiment in all cases: NCI-60 cell line screen, 48 h
NCI-H23 lung = system: NCI-H23 lung
NCI-H226 lung = system: NCI-H226 lung
SK-MEL-28 melanoma = system: SK-MEL-28 melanoma
EKVX NSCLC = system: EKVX NSCLC
OVCAR-3 ovarian = system: OVCAR-3 ovarian
KM12 colon = system: KM12 colon
COLO 205 colon = system: COLO 205 colon
MALME-3M melanoma = system: MALME-3M melanoma
SF-268 CNS = system: SF-268 CNS
IGROV1 ovarian = system: IGROV1 ovarian
HOP-92 NSCLC = system: HOP-92 NSCLC
786-0 renal = system: 786-0 renal
OVCAR-5 ovarian = system: OVCAR-5 ovarian
CCRF-CEM leukemia = system: CCRF-CEM leukemia
SNB-19 CNS = system: SNB-19 CNS
K-562 leukemia = system: K-562 leukemia
SK-MEL-2 melanoma = system: SK-MEL-2 melanoma
U251 CNS = system: U251 CNS
SW-620 colon = system: SW-620 colon
TK-10 renal = system: TK-10 renal
MDA-MB-435 = system: MDA-MB-435
SK-OV-3 ovarian = system: SK-OV-3 ovarian
M14 melanoma = system: M14 melanoma
PC-3 prostate = system: PC-3 prostate
A498 renal = system: A498 renal
SK-MEL-5 melanoma = system: SK-MEL-5 melanoma
MDA-MB-231 breast = system: MDA-MB-231 breast
HS 578T breast = system: HS 578T breast
SF-295 CNS = system: SF-295 CNS
NCI-H522 lung = system: NCI-H522 lung
MDA-N = system: MDA-N
DU-145 prostate = system: DU-145 prostate
HCT-116 colon = system: HCT-116 colon
UO-31 renal = system: UO-31 renal
UACC-62 melanoma = system: UACC-62 melanoma
SNB-75 CNS = system: SNB-75 CNS
ACHN renal = system: ACHN renal
RPMI-8226 leukemia = system: RPMI-8226 leukemia
HOP-62 NSCLC = system: HOP-62 NSCLC
MOLT-4 leukemia = system: MOLT-4 leukemia
MCF7 breast = system: MCF7 breast
SN12C renal = system: SN12C renal
A549 NSCLC = system: A549 NSCLC
SR leukemia = system: SR leukemia
LOX IMVI melanoma = system: LOX IMVI melanoma
HCT-15 colon = system: HCT-15 colon
OVCAR-8 ovarian = system: OVCAR-8 ovarian
CAKI-1 renal = system: CAKI-1 renal
BT-549 breast = system: BT-549 breast
HL-60(TB) leukemia = system: HL-60(TB) leukemia
SF-539 CNS = system: SF-539 CNS
HT29 colon = system: HT29 colon
RXF 393 renal = system: RXF 393 renal
OVCAR-4 ovarian = system: OVCAR-4 ovarian
T-47D breast = system: T-47D breast
NCI/ADR-RES ovarian = system: NCI/ADR-RES ovarian
UACC-257 melanoma = system: UACC-257 melanoma
HCC-2998 colon = system: HCC-2998 colon
NCI-H460 lung = system: NCI-H460 lung

With C[C@H](c1ccccc1)N1C(=O)[C@@H](OCc2ccccc2)[C@H]1[C@H](COC(=O)COCc1ccccc1)OCc1ccccc1 the TGI (NCI-H23 lung) was over 100000 nM, the TGI (NCI-H226 lung) was 89400 nM and the TGI (SK-MEL-28 melanoma) was over 100000 nM. The TGI (EKVX NSCLC) was over 100000 nM, the TGI (OVCAR-3 ovarian) was over 100000 nM and the TGI (KM12 colon) was over 100000 nM. The TGI (COLO 205 colon) was over 100000 nM, the TGI (MALME-3M melanoma) was 76700 nM and the TGI (SF-268 CNS) was over 100000 nM. The TGI (IGROV1 ovarian) was over 100000 nM, the TGI (HOP-92 NSCLC) was over 100000 nM and the TGI (786-0 renal) was over 100000 nM. It also gave a TGI (OVCAR-5 ovarian) of over 100000 nM, a TGI (CCRF-CEM leukemia) of over 100000 nM and a TGI (SNB-19 CNS) of over 100000 nM. The TGI (K-562 leukemia) was over 100000 nM, the TGI (SK-MEL-2 melanoma) was over 100000 nM and the TGI (U251 CNS) was over 100000 nM. For the same compound, the TGI (SW-620 colon) was over 100000 nM, the TGI (TK-10 renal) was over 100000 nM and the TGI (MDA-MB-435) was over 100000 nM. The TGI (SK-OV-3 ovarian) was over 100000 nM, the TGI (M14 melanoma) was over 100000 nM and the TGI (PC-3 prostate) was over 100000 nM. The TGI (A498 renal) was over 100000 nM, the TGI (SK-MEL-5 melanoma) was over 100000 nM and the TGI (MDA-MB-231 breast) was over 100000 nM. For the same compound, the TGI (HS 578T breast) was over 100000 nM, the TGI (SF-295 CNS) was over 100000 nM and the TGI (NCI-H522 lung) was over 100000 nM. For the same compound, the TGI (MDA-N) was over 100000 nM, the TGI (DU-145 prostate) was over 100000 nM and the TGI (HCT-116 colon) was over 100000 nM. It also gave a TGI (UO-31 renal) of over 100000 nM, a TGI (UACC-62 melanoma) of over 100000 nM and a TGI (SNB-75 CNS) of over 100000 nM. For the same compound, the TGI (ACHN renal) was over 100000 nM, the TGI (RPMI-8226 leukemia) was over 100000 nM and the TGI (HOP-62 NSCLC) was over 100000 nM. The TGI (MOLT-4 leukemia) was over 100000 nM, the TGI (MCF7 breast) was over 100000 nM and the TGI (SN12C renal) was over 100000 nM. For the same compound, the TGI (A549 NSCLC) was over 100000 nM, the TGI (SR leukemia) was over 100000 nM and the TGI (LOX IMVI melanoma) was over 100000 nM. The TGI (HCT-15 colon) was over 100000 nM.
With Cc1ccc(C(=O)Nc2ccc(CN3CCN(C)CC3)c(C(F)(F)F)c2)cc1C#Cc1cnc(N)c2ccc(F)cc12 the GI50 (NCI-H23 lung) was 584 nM, the TGI (NCI-H23 lung) was 2240 nM and the GI50 (NCI-H226 lung) was 737 nM. For the same compound, the TGI (NCI-H226 lung) was 3660 nM, the GI50 (SK-MEL-28 melanoma) was 410 nM and the TGI (SK-MEL-28 melanoma) was 918 nM. It also gave a GI50 (EKVX NSCLC) of 1060 nM, a TGI (EKVX NSCLC) of 4730 nM and a GI50 (OVCAR-3 ovarian) of 359 nM. It also gave a TGI (OVCAR-3 ovarian) of 1060 nM, a GI50 (KM12 colon) of 186 nM and a TGI (KM12 colon) of 778 nM. The GI50 (COLO 205 colon) was 301 nM, the TGI (COLO 205 colon) was 933 nM and the GI50 (MALME-3M melanoma) was 141 nM. For the same compound, the TGI (MALME-3M melanoma) was 597 nM, the GI50 (SF-268 CNS) was 259 nM and the TGI (SF-268 CNS) was 1880 nM. The GI50 (IGROV1 ovarian) was 57.5 nM, the TGI (IGROV1 ovarian) was 501 nM and the GI50 (OVCAR-8 ovarian) was 297 nM. It also gave a TGI (OVCAR-8 ovarian) of 2370 nM, a GI50 (HOP-92 NSCLC) of 180 nM and a TGI (HOP-92 NSCLC) of 944 nM. The GI50 (786-0 renal) was 305 nM, the TGI (786-0 renal) was 731 nM and the GI50 (OVCAR-5 ovarian) was 694 nM. It also gave a TGI (OVCAR-5 ovarian) of 2700 nM, a GI50 (CCRF-CEM leukemia) of 398 nM and a TGI (CCRF-CEM leukemia) of 1820 nM. The GI50 (CAKI-1 renal) was 216 nM, the TGI (CAKI-1 renal) was 1290 nM and the GI50 (SNB-19 CNS) was 641 nM. It also gave a TGI (SNB-19 CNS) of 1810 nM, a GI50 (BT-549 breast) of 1310 nM and a TGI (BT-549 breast) of 4330 nM. For the same compound, the GI50 (K-562 leukemia) was 4.31 nM, the TGI (K-562 leukemia) was 900 nM and the GI50 (SK-MEL-2 melanoma) was 270 nM. For the same compound, the TGI (SK-MEL-2 melanoma) was 1440 nM, the GI50 (U251 CNS) was 275 nM and the TGI (U251 CNS) was 717 nM. For the same compound, the GI50 (HL-60(TB) leukemia) was 198 nM, the TGI (HL-60(TB) leukemia) was 1350 nM and the GI50 (SW-620 colon) was 251 nM. It also gave a TGI (SW-620 colon) of 638 nM, a GI50 (TK-10 renal) of 416 nM and a TGI (TK-10 renal) of 2720 nM. The GI50 (SF-539 CNS) was 527 nM, the TGI (SF-539 CNS) was 1240 nM and the GI50 (MDA-MB-435) was 123 nM. For the same compound, the TGI (MDA-MB-435) was 470 nM, the GI50 (SK-OV-3 ovarian) was 684 nM and the TGI (SK-OV-3 ovarian) was 2880 nM. The GI50 (M14 melanoma) was 88.1 nM, the TGI (M14 melanoma) was 441 nM and the GI50 (PC-3 prostate) was 508 nM. It also gave a TGI (PC-3 prostate) of 1660 nM, a GI50 (A498 renal) of 327 nM and a TGI (A498 renal) of 961 nM. It also gave a GI50 (SK-MEL-5 melanoma) of 805 nM, a TGI (SK-MEL-5 melanoma) of 2180 nM and a GI50 (HT29 colon) of 133 nM. For the same compound, the TGI (HT29 colon) was 865 nM, the GI50 (MDA-MB-231 breast) was 353 nM and the TGI (MDA-MB-231 breast) was 905 nM. It also gave a GI50 (HS 578T breast) of 301 nM, a TGI (HS 578T breast) of 1370 nM and a GI50 (SF-295 CNS) of 633 nM. For the same compound, the TGI (SF-295 CNS) was 2340 nM, the GI50 (NCI-H522 lung) was 214 nM and the TGI (NCI-H522 lung) was 723 nM. It also gave a GI50 (DU-145 prostate) of 139 nM, a TGI (DU-145 prostate) of 554 nM and a GI50 (RXF 393 renal) of 218 nM. The TGI (RXF 393 renal) was 579 nM, the GI50 (HCT-116 colon) was 192 nM and the TGI (HCT-116 colon) was 533 nM. It also gave a GI50 (OVCAR-4 ovarian) of 329 nM, a TGI (OVCAR-4 ovarian) of 2320 nM and a GI50 (UO-31 renal) of 121 nM. For the same compound, the TGI (UO-31 renal) was 748 nM, the GI50 (UACC-62 melanoma) was 329 nM and the TGI (UACC-62 melanoma) was 1020 nM. It also gave a GI50 (T-47D breast) of 770 nM, a TGI (T-47D breast) of 3680 nM and a GI50 (NCI/ADR-RES ovarian) of 436 nM. The TGI (NCI/ADR-RES ovarian) was 2090 nM, the GI50 (SNB-75 CNS) was 256 nM and the TGI (SNB-75 CNS) was 863 nM. The GI50 (ACHN renal) was 79.1 nM, the TGI (ACHN renal) was 401 nM and the GI50 (RPMI-8226 leukemia) was 530 nM. It also gave a TGI (RPMI-8226 leukemia) of 1640 nM, a GI50 (HOP-62 NSCLC) of 753 nM and a TGI (HOP-62 NSCLC) of 3440 nM. It also gave a GI50 (UACC-257 melanoma) of 594 nM, a TGI (UACC-257 melanoma) of 1950 nM and a GI50 (HCC-2998 colon) of 377 nM. It also gave a TGI (HCC-2998 colon) of 798 nM, a GI50 (MOLT-4 leukemia) of 92.1 nM and a TGI (MOLT-4 leukemia) of 671 nM. For the same compound, the GI50 (MCF7 breast) was 441 nM, the TGI (MCF7 breast) was 861 nM and the GI50 (NCI-H460 lung) was 232 nM. The TGI (NCI-H460 lung) was 647 nM, the GI50 (SN12C renal) was 79.3 nM and the TGI (SN12C renal) was 730 nM. The GI50 (A549 NSCLC) was 270 nM, the TGI (A549 NSCLC) was 712 nM and the GI50 (SR leukemia) was 262 nM. It also gave a TGI (SR leukemia) of 1300 nM, a GI50 (LOX IMVI melanoma) of 216 nM and a TGI (LOX IMVI melanoma) of 557 nM. The GI50 (HCT-15 colon) was 112 nM and the TGI (HCT-15 colon) was 456 nM.
